Assay results taken from patent publication US11866416B2, “Streptococcus mutans glucosyl transferase inhibitors for dental caries therapy” (UAB Research Foundation, priority 2018, dated 2024).
Values after ≈ are worked out from the molar mass of the structure shown. Like-named read-outs stand apart in the source and are kept apart here. Marks after values point to notes of the source that are not given here.

Key:
[1] = tested on: S. mutans biofilm; experiment: S. mutans biofilm formation and inhibition assay (96-well plates, crystal violet); assay type: cell-based, Streptococcus mutans
Description: Biofilm assays using 96-well flat-bottom polystyrene microtiter plates were performed to evaluate S. mutans biofilm formation at various conditions as described (Liu et al. (2011) Antimicrobial Agents and Chemotherapy 55, 2679; Zhang et al. (2015) International Journal of Antimicrobial Agents 46, 174), the disclosures of which are incorporated herein by reference in their entirety). Each assay was replicated three times. Compounds that inhibited biofilm formation at minimum concentration (MBIC) were determined by serial dilutions.
S. mutans biofilm formation and inhibition assays. […] Each assay was replicated three times. Minimum biofilm inhibitory concentration (MBIC) of compounds was determined by serial dilutions.
S. mutans biofilm formation and inhibition assays. Biofilm assays using 96-well flat-bottom polystyrene microtiter plates were performed to evaluate S. mutans biofilm formation at various conditions as described. Each assay was replicated […]. Compounds that inhibited 50% biofilm formation were determined by serial dilutions.
S. mutans biofilm formation and inhibition assays. A well-established protocol to study S. mutans biofilm formation in 96-well flat-bottom polystyrene microtiter plates was used, in triplicate (Mattos-Graner, R. O.; Napimoga, M. H.; Fukushima, K.; Duncan, M. J.; Smith, D. J., Comparative analysis of Gtf isozyme production and diversity in isolates of Streptococcus mutans with different biofilm growth phenotypes. Journal of clinical microbiology 2004, 42 (10), 4586-4592). The stock solutions were made up in 100% DMSO, and final concentration of DMSO used in the assays was 1%. Minimum biofilm inhibitory concentration (MBIC) of compounds was determined by serial dilutions.

[2] = tested on: S. mutans; experiment: microbe, parasite or virus in culture; assay type: cell-based, Streptococcus mutans; settings: for Selectivity: growth versus biofilm
Description: Cell viability of S. mutans, S. gordonii, S. sanguinis, Aggregatibacter actinomycetemcomitans and Actinomyces. […] The number of colony-forming units (CFU) per milliliter of each sample treated with selected compounds at different concentrations was enumerated after incubation for 24 h at 37° C. and compared to the values obtained from the DMSO control group. Overnight broth cultures were transferred by 1:50 dilutions into fresh THB medium and were allowed to grow until mid-exponential phase (OD470 nm 0.6) before transfer to 96-well plates containing desired concentration of the compound. After 16 h incubation, bacterial growth was measured at OD470, and normalized to the DMSO control (100%).
Cell viability of S. mutans and commensal S. gordonii and S. sanguinis. Effects of lead small molecules on cell viability were examined. The number of colony-forming units (CFU) per milliliter for each compound at different concentrations was determined after incubation for 24 h at 37° C. and compared to the values obtained from the DMSO control group.
Cell viability of S. mutans and commensal S. gordonii and S. sanguinis. […] DMSO served as a control group and provided a relative comparison for the number of colony-forming units (CFU) per milliliter for each compound at different concentrations was determined after incubation for 24 h at 37° C. The final concentration of DMSO used in the assays was 1%.

[3] = Streptococcus mutans, Table 4, stilbenes, NI = no inhibition, read-out: Biofilm IC50
[4] = Streptococcus mutans, Table 8, stilbenes, NI = no inhibition, read-out: Biofilm IC50
[5] = Streptococcus mutans, Table 4, stilbenes, average of at least 5 measurements, NI = no inhibition, read-out: Growth MIC50
[6] = Table 8, stilbenes, average of at least 5 measurements, NI = no inhibition
[7] = Streptococcus mutans, Table 2, read-out: Biofilm Inhibition IC50
[8] = Streptococcus mutans, Table 2, >300 = no inhibition up to 300 μM, read-out: Growth Inhibition MIC50
[9] = Streptococcus mutans, Table 3, read-out: Biofilm Inhibition IC50
[10] = Streptococcus mutans, Table 3, >300 = no inhibition up to 300 μM, NI = no inhibition up to 400 μM, read-out: Growth Inhibition MIC50

Structure (SMILES) | IC50 [1, 7] [µM] | MIC50 [2, 8] [µM] | IC50 [1, 9] [µM] | MIC50 [2, 10] [µM] | further results
COc1cc(/C=C/c2ccc(OC)c(O)c2)cc(OC)c1 [Entry 9] |  |  |  |  | IC50 [1, 3]: 122 ± 11 µM; IC50 [1, 4]: 122 ± 11 µM; MIC50 [2, 5]: 137 ± 6 µM (≈ 39.2 µg/mL); Selectivity ([2]; Table 4, stilbenes): 1.1; Growth MIC50 [2, 6]: 137 ± 6 µM; Selectivity ([2]; Table 8, stilbenes): 1.1
O=C(/C=C/c1ccc(O)c(O)c1)O[C@@H]1C[C@](O)(C(=O)O)C[C@@H](O)[C@H]1O [Entry 10] |  |  |  |  | IC50 [1, 3]: 518 ± 85 µM; IC50 [1, 4]: 518 ± 85 µM; MIC50 [2, 5]: 1720 ± 53 µM (≈ 611 µg/mL); Selectivity ([2]; Table 4, stilbenes): 3.3; Growth MIC50 [2, 6]: 1724 ± 53 µM; Selectivity ([2]; Table 8, stilbenes): 3.3
C[n+]1ccc(/C=C/c2ccc(O)c(O)c2)c2ccccc21 [Entry 11] |  |  |  |  | IC50 [1, 3]: 104 ± 6 µM; IC50 [1, 4]: 104 ± 6 µM; MIC50 [2, 5]: > 400 µM; Selectivity ([2]; Table 4, stilbenes): 4.0; MIC50 ([2]; Table 8, stilbenes, average of at least 5 measurements, NI = no inhibition, read-out: Growth MIC50): >400 µM; Selectivity ([2]; Table 8, stilbenes): 4.0
COc1ccc(/C=C/c2cc(O)cc(O[C@@H]3O[C@H](CO)[C@@H](O)[C@H](O)[C@H]3O)c2)cc1O [Entry 12] |  |  |  |  | IC50 [1, 3]: 106 ± 11 µM; IC50 [1, 4]: 106 ± 11 µM; MIC50 [2, 5]: 134 ± 11 µM (≈ 56.3 µg/mL); Selectivity ([2]; Table 4, stilbenes): 1.2; Growth MIC50 [2, 6]: 134 ± 11 µM; Selectivity ([2]; Table 8, stilbenes): 1.2
NC(=O)c1ccccc1NC(=O)c1ccc2ncoc2c1 [HW-1-179] | 65.1 | > 300 |  |  | 
COc1ccc(/C=C2\Oc3ccccc3C2=O)cc1OC [LC-I-197] |  |  | 8.4 ± 1 | 37.1 ± 6 (≈ 10.5 µg/mL) | 
COc1ccc(/C=C2\Oc3ccccc3C2=O)c(OC)c1 [LC-I-203] |  |  | 40.6 ± 3 | > 300 | 
COc1cc(OC)c(OC)cc1/C=C1\Oc2ccccc2C1=O [LC-I-205] |  |  | 8.3 ± 1 | > 300 | 
O=C1/C(=C/c2ccccc2)Oc2ccccc21 [LC-I-206] |  |  | 320 ± 21 | > 300 | 
O=C(/C=C/c1ccc(O)c(O)c1)c1ccc(O)c(O)c1O [Okanin (natural), Okanin] |  |  | 64 ± 7 | 534 ± 17 (≈ 154 µg/mL) | 
COc1cc(-c2[o+]c3cc(O)cc(O)c3cc2O)cc(O)c1O [PAC] |  |  | 61.2 ± 2.3 | 274 ± 45.8 | 
Oc1cc(O)c2cc(O)c(-c3cc(O)c(O)c(O)c3)[o+]c2c1 [PBF] |  |  | 135 ± 5.6 | 262 ± 21 | 
O=C(/C=C/c1ccc(O)cc1O)c1cccc(O)c1 [RZ-1-86] |  |  | 32 ± 5 | 469 ± 16 (≈ 120 µg/mL) | 
O=C(/C=C/c1ccc(O)c(O)c1)c1ccccc1O [RZ-1-90] |  |  | 356 ± 14 | > 300 | 
CN(C)c1ncc(/C=C/C(=O)Nc2ccccc2C(N)=O)cn1 [SN-I-271S] | 12.8 | > 300 |  |  | 
NC(=O)c1ccccc1NC(=O)c1ccc2ncsc2c1 [SN-I-271U] | 36.1 | > 300 |  |  | 
O=C(O)c1ccc(NC(=O)c2cc3cc([N+](=O)[O-])ccc3s2)cc1 [SN-I-272OH] | 15.6 | > 300 |  |  | 
O=C(O)c1ccc(NC(=O)c2cc3ccccc3s2)cc1 [SN-I-272VH] | 180 | > 300 |  |  | 
NC(=O)c1ccccc1C(=O)Nc1cnc2ccccc2c1 [SN-I-285] | 102 | > 300 |  |  | 

Structure (SMILES) | IC50 [1, 7] [µM] | MIC50 [2, 8] [µM] | IC50 [1, 9] [µM] | MIC50 [2, 10] [µM] | further results
[N-]=[N+]=Nc1ccc(NC(=O)c2cc3cc([N+](=O)[O-])ccc3s2)cc1 [SN-I-287] | 250 | > 300 |  |  | 
[N-]=[N+]=Nc1ccc(C(=O)Nc2ccccc2C(N)=O)cc1 [SN-I-288] | 212 | > 300 |  |  | 
[N-]=[N+]=Nc1ccc2sc(C(=O)Nc3ccccc3C(N)=O)cc2c1 [SN-II-14] | 57.2 | > 300 |  |  | 
COc1ccc(/C=C/C(=O)c2ccc(OC)c(OC)c2O)c(OC)c1 [SN-II-24-B6] |  |  | 101 ± 3 | 231 ± 12 (≈ 79.4 µg/mL) | 
O=C(/C=C/c1ccc(O)cc1O)c1ccccc1O [SN-II-32] |  |  | 250 ± 16 | 327 ± 24 (≈ 83.8 µg/mL) | 
O=C(/C=C/c1ccc(O)cc1O)c1ccc(O)cc1 [SN-II-49C] |  |  | 77 ± 8 | 782 ± 96 (≈ 200 µg/mL) | 
NC(=O)c1cc(NC(=O)c2cc3cc([N+](=O)[O-])ccc3s2)cc(C(N)=O)c1 [SN-II-50] | 4.6 | > 300 |  |  | 
NC(=O)c1cc(NC(=O)c2cc3cc([N+](=O)[O-])ccc3s2)ccc1[N+](=O)[O-] [SN-II-59] | 23.4 | > 300 |  |  | 
O=c1c(O)c(-c2ccc(O)cc2O)oc2ccccc12 [SN-II-79] |  |  | 65.9 ± 1 | 30 ± 1 (≈ 8.11 µg/mL) | 
Cl.NC(=O)c1ccccc1NC(=O)c1cc2cc(N)ccc2s1 [SN-II-81Cl] | 9.6 |  |  |  | Growth Inhibition MIC50 ([2]; Table 2, >300 = no inhibition up to 300 μM): >300^b μM
NC(=O)c1ccccc1NC(=O)c1cc2cc(N)ccc2s1 [SN-II-81F] |  | > 300 |  |  | IC50 ([1]; Table 2, read-out: Biofilm Inhibition IC50): 56.4 µM
O=c1c(O)c(-c2cc(O)c(O)cc2O)oc2ccccc12 [SN-II-92] |  |  | 19.8 ± 2 | 63.1 ± 4 (≈ 18.1 µg/mL) | 
COC(=O)c1cccc(NC(=O)c2cc3cc(N)ccc3o2)c1 [SN-II-105] | 5.5 | 347 (≈ 108 µg/mL) |  |  | 
COC(=O)c1cccc(NC(=O)c2cc3cc(N/C(=N\C(=O)OC(C)(C)C)NC(=O)OC(C)(C)C)ccc3o2)c1 [SN-II-106] | 14 | 29 (≈ 16 µg/mL) |  |  | 
COC(=O)c1cccc(NC(=O)c2cc3cc(NC(=N)N)ccc3o2)c1 [SN-II-107] | 16.6 | 45.9 (≈ 16.2 µg/mL) |  |  | 
O=C1/C(=C/c2cc(O)c(O)cc2O)Oc2ccccc21 [SN-II-110] |  |  | 10.2 ± 2 | 157 ± 13 (≈ 42.3 µg/mL) | 
O=C(/C=C/c1ccc(O)cc1)c1ccccc1O [SN-II-113] |  |  | 213 ± 7 | > 300 | 
COc1cc(O)ccc1/C=C1\Oc2ccccc2C1=O [SN-II-115] |  |  | 133 ± 24 | 153 ± 21 (≈ 41 µg/mL) | 
O=C1/C(=C/c2ccc(O)c(O)c2)Oc2ccccc21 [SN-II-118] |  |  | 280 ± 35 | 263 ± 14 (≈ 66.8 µg/mL) | 
